Source: PMC10996005, “Identification and Development of Cyclic Peptide Inhibitors of Hypoxia Inducible Factors 1 and 2 That Disrupt Hypoxia-Response Signaling in Cancer Cells” (Journal of the American Chemical Society, 2024)
Read-outs that look alike come from different tables or passages of the source. Where a SMILES comes first, the peptide text is derived from it. [ ]: non-standard residue; d: D form. Phe(4-CF3) = N[C@@H](Cc1ccc(C(F)(F)F)cc1)C(=O)O; Phe(4-F) = N[C@@H](Cc1ccc(F)cc1)C(=O)O; 1Nal = N[C@@H](Cc1cccc2ccccc12)C(=O)O; Pen = CC(C)(S)[C@H](N)C(=O)O; hCys = N[C@@H](CCS)C(=O)O; Nva = CCC[C@H](N)C(=O)O

Columns and labels:
HIF-1α PAS-B domain = biological target: T1, HIF-1α PAS-B domain (Homo sapiens, UniProt Q16665); experiment: MST binding to the PAS-B domain of HIF-1α; conditions: for Kd: mean ± SEM, n = 2 (n = 1 for most C1 analogues, n = 3 in Figure S2)
T1 construct: made in house
Method: (§1) All reagents were purchased from Fisher Scientific or Sigma Aldrich UK unless specified otherwise.
(§2) Restriction enzymes and microbiology reagents were purchased from New England Biolabs Inc., Fisher Scientific (UK) or Promega (UK) and were used as directed by the manufacturer. Primers and oligonucleotides were synthesised by Integrated DNA Technologies (UK). DNA sequencing was carried out by Eurofins MWG Operon (Germany).
(§3) Construction of the RTHS and SICLOPPS library, screening, purification of recombinant HIF proteins, and the PLA was conducted as previously described in Miranda et al., J. Am. Chem. Soc., 2013, 135(28); […]
(§4) Protein labelling with MST dye
(§5) Protein was buffer exchanged from storage buffer into labelling buffer (0.1 M NaHCO3, pH 8.5) using a PD spintrap G-25 column (GE healthcare). The protein concentration was then adjusted to 20 µM.
(§6) The commercially sourced MST dye (NanoTemper) was prepared as a 470 µM solution in DMSO, which was then further diluted to 60 µM using labelling buffer. To the protein solution was added an equal volume of dye solution, and the labelling reaction was left for 1 hour in the dark at room temperature.
(§7) The labelled protein was separated from unreacted dye by elution through a PD minitrap G-25 column (GE healthcare). Labelled protein was then aliquoted and stored at -80 °C. Extent of labelling was measured by the absorbance obtained using the UV-vis mode on a NanoDrop ND-1000 Spectrophotometer (NanoDrop Technologies, USA).
(§8) Labelled protein was thawed on ice and diluted to 50 nM in assay buffer containing 50 mM Tris pH 8.0, 150 mM NaCl, 5% (v/v) glycerol, 1 mM TCEP and 0.05% TWEEN-20. The protein solution was then centrifuged at 12000 rpm for 15 minutes at 4 °C and left on ice. Compounds were prepared and serially diluted in DMSO at 10x assay concentration, before diluting to 2x assay concentration in assay buffer.
(§9) The 2x compound solutions were then mixed 1:1 (v/v) with 50 nM labelled protein solution and left to incubate for 1 hour at room temperature. Solutions were then loaded into Monolith NT.115 Premium Capillaries (NanoTemper) and placed in the sample tray. MST experiments were carried out

HIF-2α PAS-B domain = biological target: T2, HIF-2α PAS-B domain (Homo sapiens, UniProt Q99814); experiment: MST binding to the PAS-B domain of HIF-2α; conditions: MST; for Kd: mean (n = 2) ± SEM
T2 construct: made in house
Method: as §1, §2, §3, §4, §5, §6, §7, §8, §9

[1] = MST, read-out: KD for HIF-1α PAS-B

T1 sequence (Q16665 238-349 limits assumed): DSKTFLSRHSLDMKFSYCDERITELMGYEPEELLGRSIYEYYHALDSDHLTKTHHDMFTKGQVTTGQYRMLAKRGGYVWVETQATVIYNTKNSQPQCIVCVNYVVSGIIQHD
T2 sequence (Q99814 240-350 limits assumed): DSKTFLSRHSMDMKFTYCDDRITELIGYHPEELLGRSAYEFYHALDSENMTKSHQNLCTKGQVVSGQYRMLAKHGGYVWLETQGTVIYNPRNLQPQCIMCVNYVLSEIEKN

Row | SMILES | Kd (HIF-1α PAS-B domain; [1]) | other results
1 | CC[C@H](C)[C@@H]1NC(=O)[C@H](CC(C)C)NC(=O)[C@H](CCCNC(=N)N)NC(=O)[C@H](CS)NC(=O)[C@H](Cc2ccc(F)cc2)NC(=O)[C@H]([C@@H](C)CC)NC1=O [F, cyclo-CRLII(4-F)F] (cyclo(CRLII[Phe(4-F)])) | 1.7 ± 0.2 µM | –
2 | CC[C@H](C)[C@@H]1NC(=O)[C@H](CC(C)C)NC(=O)[C@H](CCCNC(=N)N)NC(=O)[C@H](CO)NC(=O)[C@H](Cc2ccccc2)NC(=O)[C@H]([C@@H](C)CC)NC1=O [S, cyclo-SRLIIF] (cyclo(FSRLII)) | > 100 µM | –
3 | CC[C@H](C)[C@@H]1NC(=O)[C@H](CC(C)C)NC(=O)[C@H](CCCNC(=N)N)NC(=O)[C@H](CS)NC(=O)[C@H](Cc2ccccc2)NC(=O)[C@H](C(C)C)NC1=O [V, cyclo-CRLIVF] (cyclo(CRLIVF)) | 15.9 ± 0.3 µM | –
4 | CC[C@H](C)[C@@H]1NC(=O)[C@H](CC(C)C)NC(=O)[C@H](CCCNC(=N)N)NC(=O)[C@H](CS)NC(=O)[C@H](Cc2ccc(O)cc2)NC(=O)[C@H]([C@@H](C)CC)NC1=O [OH, cyclo-CRLIIY] (cyclo(CRLIIY)) | 7.4 ± 0.1 µM | –
5 | CC[C@H](C)[C@@H]1NC(=O)[C@H](CC(C)C)NC(=O)[C@H](CCCNC(=N)N)NC(=O)[C@H](CS)NC(=O)[C@H](C)NC(=O)[C@H]([C@@H](C)CC)NC1=O [cyclo-CRLIIA] | 80.2 ± 27.3 µM | Kd (HIF-2α PAS-B domain): > 100 µM
6 | CC[C@H](C)[C@@H]1NC(=O)[C@H](CC(C)C)NC(=O)[C@H](CCCNC(=N)N)NC(=O)[C@H](CS)NC(=O)[C@H](Cc2cccc3ccccc23)NC(=O)[C@H]([C@@H](C)CC)NC1=O [1-Nal, cyclo-CRLII(1-Nal)] (cyclo([1Nal]CRLII)) | 1.7 ± 0.5 µM | –
7 | CC[C@H](C)[C@@H]1NC(=O)[C@H](CC(C)C)NC(=O)[C@H](CCCNC(=N)N)NC(=O)[C@H](CCS)NC(=O)[C@H](Cc2ccccc2)NC(=O)[C@H]([C@@H](C)CC)NC1=O [hC, cyclo-hCRLIIF] (cyclo(F[hCys]RLII)) | > 50 µM | –
8 | CCC[C@@H]1NC(=O)[C@H]([C@@H](C)CC)NC(=O)[C@H](CC(C)C)NC(=O)[C@H](CCCNC(=N)N)NC(=O)[C@H](CS)NC(=O)[C@H](Cc2ccccc2)NC1=O [Nva, cyclo-CRLINvaF] (cyclo(CRLI[Nva]F)) | 22.1 ± 2.6 µM | –
9 | CC[C@H](C)[C@@H]1NC(=O)[C@H](CC(C)C)NC(=O)[C@H](CCCNC(=N)N)NC(=O)[C@H]([C@@H](C)O)NC(=O)[C@H](Cc2ccccc2)NC(=O)[C@H]([C@@H](C)CC)NC1=O [T, cyclo-TRLIIF] (cyclo(FTRLII)) | > 100 µM | –
10 | CC[C@H](C)[C@@H]1NC(=O)[C@H](C)NC(=O)[C@H](CCCNC(=N)N)NC(=O)[C@H](CS)NC(=O)[C@H](Cc2ccccc2)NC(=O)[C@H]([C@@H](C)CC)NC1=O [cyclo-CRAIIF] (cyclo(CRAIIF)) | 52.7 ± 5.6 µM | Kd (HIF-2α PAS-B domain): 52.3 ± 6.6 µM
11 | CC[C@H](C)[C@@H]1NC(=O)[C@H](C(C)C)NC(=O)[C@H](CCCNC(=N)N)NC(=O)[C@H](CS)NC(=O)[C@H](Cc2ccccc2)NC(=O)[C@H]([C@@H](C)CC)NC1=O [cyclo-CRVIIF] (cyclo(CRVIIF); ring closure inferred) | – | Kd (HIF-1α PAS-B domain; KD for HIF-1α PAS-B, MST): 65.5 ± 11.4 µM; selectivity for HIF-1α over HIF-2α (HIF-1α PAS-B domain; ratio of MST KD values): 2 fold
12 | CC[C@H](C)[C@@H]1NC(=O)[C@H](CC(C)C)NC(=O)[C@H](CCCNC(=N)N)NC(=O)[C@H](C(C)(C)S)NC(=O)[C@H](Cc2ccccc2)NC(=O)[C@H]([C@@H](C)CC)NC1=O [Pen, cyclo-PenRLIIF] (cyclo(F[Pen]RLII)) | 5.7 ± 0.9 µM | –
13 | CC[C@H](C)[C@@H]1NC(=O)[C@H](CC(C)C)NC(=O)[C@H](CCCNC(=N)N)NC(=O)[C@H](CS)NC(=O)[C@H](Cc2ccc(C(F)(F)F)cc2)NC(=O)[C@H]([C@@H](C)CC)NC1=O [CF3, cyclo-CRLII(4-CF3)F] (cyclo(CRLII[Phe(4-CF3)])) | 1.1 ± 0.5 µM | –
14 | CC[C@H](C)[C@@H]1NC(=O)[C@H](CC(C)C)NC(=O)[C@H](CC(C)C)NC(=O)[C@H](CCCNC(=N)N)NC(=O)[C@H](CS)NC(=O)[C@H](Cc2ccccc2)NC1=O [cyclo-CRLLIF] (cyclo(CRLLIF); ring closure inferred) | – | Hill slope of binding curve to HIF-1α (HIF-1α PAS-B domain; MST): 1.22; Hill slope of binding curve to HIF-2α (HIF-2α PAS-B domain): 1.45
15 | CC[C@H](C)[C@@H]1NC(=O)[C@H](CC(C)C)NC(=O)[C@H](C)NC(=O)[C@H](CS)NC(=O)[C@H](Cc2ccccc2)NC(=O)[C@H]([C@@H](C)CC)NC1=O [cyclo-CALIIF] (cyclo(ALIIFC)) | 30.6 ± 0.3 µM | Kd (HIF-2α PAS-B domain): 12.5 ± 0.4 µM
